Experimental data taken from US6916915B1, “Stressor regulated genes” (Duke University, priority 1998, dated 2005).
Several values for one entry are separate records, joined by “and”; a condition that tells them apart may be missing. Equal entries are not always repeated.

Columns and labels:
C. elegans [1] = experiment: mRNA differential display of control and cadmium-treated nematodes; type: in vivo, Caenorhabditis elegans; conditions: cadmium-treated C. elegans cDNA compared to the control
Method: (§1) Growth and isolation of C. elegans—The N2 strain of C. elegans was grown in liquid S medium (0.1M NaCl, 50 mM potassium phosphate, pH 6.0, 5 μg/ml cholesterol, 10 mM potassium citrate, 3 mM CaCl2, 3 mM MgCl2, 50 μM EDTA, 25 μM FeSO4, 10 μM MnCl2, 10 μM ZnSO4 and 1 μM CuSO4) using E. coli OP50 as a food source (Brenner, S. (1974) Genetics 77, 71-94). In experiments where nematodes were exposed to cadmium, the medium was supplemented with 100 μM CdCl2 (Freedman, J. H. et al. (1993) J. Biol. Chem. 268, 2554-2564). C. elegans were grown in the presence of metal for 8 h or 24 h at ˜20° C. Nematodes were then collected following centrifugation at 800×g for 5 min. Pellets were suspended in 5 mM NaCl containing 35% sucrose (final concentration) and viable nematodes were collected from the top of the solution following centrifugation at 1000×g for 5 min at 4° C. Nematodes were then washed three times by suspension in M9 buffer (22 mM KH2PO4, 42 mM Na2HPO4, 85 mM NaCl, 1 mM MgSO4) followed by sedimentation at 800×g. Washed nematode pellets were finally suspended in a small volume of M9 buffer, rapidly frozen in liquid nitrogen and stored at −80° C.
RNA isolation—Total RNA was isolated from mix-stage populations of C. elegans exposed to 100 μM CdCl2 for 8 h and 24 h and control, non-exposed nematodes. […]

C. elegans [2] = experiment: Northern blot analysis of steady-state mRNA levels after cadmium exposure; type: in vivo, Caenorhabditis elegans; conditions: for Fold-change in mRNA levels following cadmium exposure, VL1 (Northern blot): clone VL1 (mtl-1)
Method: as §1
RNA isolation—Total RNA was isolated from mix-stage populations of C. elegans exposed to 100 μM CdCl2 for 8 h and 24 h and control, non-exposed nematodes. Frozen worms were first ground into a fine powder using a liquid nitrogen-cooled mortar and pestle. Powdered C. elegans (200 mg) were then homogenized in 2 ml of TRIzol (GIBCO/BRL). RNA was then collected from the aqueous phase following the addition of chloroform, precipitated by adding isopropyl alcohol and then air-dried. The dried RNA pellet was then dissolved in diethyl pyrocarbonate (DEPC)-treated water. For some experiments, poly(A^+) RNA was subsequently isolated using the Poly(A) Tract System following manufacturer's instructions (Promega).
Northern Blot Analysis-Samples of total RNA (20 μg) or poly(A^+) RNA (2 μg) were denatured in a 2.2M formaldehyde/50% (v/v) formamide buffer and then subjected to denaturing gel electrophoresis on a 1.5% agarose/2.2M formaldehyde gel. Size-fractionated RNAs were then transferred to Nytran membrane (Schleicher and Schuell). Membranes were probed with ^32P-labeled cDNA fragments of the differentially expressed mRNAs. cDNAs to be used as probes were generated by the PCR from the cloned DNA fragments recovered from differential display gels. cDNAs were labeled with [α-^32]dCTP (Amersham) by random-primed labeling. Membranes were hybridized in 6 ×SSC (1×SSC=0.15M sodium chloride, 15 mM sodium citrate, pH 7.0), 1.25× Denhardt's solution, 0.5% sodium dodecyl sulfate (SDS), 300 ng denatured sonicated salmon sperm DNA and heat-denatured probe at 42° C. for 16 h. Following hybridization, membranes were washed at a high stringency of 50° C. for 30 min in 0.1×SSC/0.1% SDS. The amount of probe hybridizing to the RNA was determined by PhosphorImager analysis (Molecular Dynamic System) . After images were obtained, membranes were incubated at 95° C. for 1 h in 0.1% SDS to remove the bound probe. They were then hybridized with a ^32P-labeled C. elegans myosin light-chain probe, which served as a loading control (Freedman, J. H. et al. (1993) J. Biol. Chem. 268, 2554-2564). As a positive control, membranes were also hybridized to a ^32P-labeled C. elegans metallothonein-2 (mtl-2) cDNA probe (Freedman, J. H. et al. (1993) J. Biol. Chem. 268, 2554-2564). Quantification of radioactivity was performed using the ImageQuant program (Molecular Dynamic System). Steady-state levels of mRNA expression were all normalized to that of the constitutively expressed myosin light-chain mRNAs (Freedman, J. H. et al. (1993) J. Biol. Chem. 268, 2554-2564; Cummins, C. et al. (198B) Mol. Cell. Biol 8, 5334-5349).

SMILES: [Cl][Cd][Cl] [cadmium, CdCl2]
- band intensity of VL9 cDNA in differential display (C. elegans [1]): decreased band intensity
- steady-state level of mtl-2 mRNA (C. elegans [2]; 100 μM CdCl2 for 24 h vs control C. elegans): increased
- Fold-change in mRNA levels following cadmium exposure, DDRT16 (Northern blot) (C. elegans [2]; clone DDRT16, 24 hours, 100 μM CdCl2, value in parenthesis, by Northern blot): 3.5 fold
- Fold-change in mRNA levels following cadmium exposure, VL1 (Northern blot) (C. elegans [2]; 8 hours, 100 μM CdCl2, value in parenthesis, by Northern blot): (4.7) fold
- Fold-change in mRNA levels following cadmium exposure, VL1 (Northern blot) (C. elegans [2]; 24 hours, 100 μM CdCl2, value in parenthesis, by Northern blot): (5.2) fold
- Fold-change in mRNA levels following cadmium exposure, VL19 (Northern blot) (C. elegans [2]; clone VL19, 24 hours, 100 μM CdCl2, value in parenthesis, by Northern blot): 2.3 fold
- Fold-change in mRNA levels following cadmium exposure, VL21 (Northern blot) (C. elegans [2]; clone VL21, 24 hours, 100 μM CdCl2, value in parenthesis, by Northern blot): 2 fold and 2.0 fold
